# Data as given in patent US8673913B2, “SHP-2 phosphatase inhibitor” (Case Western Reserve University, priority 2009, dated 2014).
# Tests used:
# [1] = biological target: T1, GST-LAR PTP domain (PTPRF) (Homo sapiens, UniProt P10586); assay: in vitro phosphatase assay, LAR; format: biochemical
# T1 construct: GST-LAR PTP domain purchased from Biomol International; purchased Biomol International, L.P. (Plymouth Meeting, Pa.)
# T1 sequence (P10586 1352-1607 limits assumed): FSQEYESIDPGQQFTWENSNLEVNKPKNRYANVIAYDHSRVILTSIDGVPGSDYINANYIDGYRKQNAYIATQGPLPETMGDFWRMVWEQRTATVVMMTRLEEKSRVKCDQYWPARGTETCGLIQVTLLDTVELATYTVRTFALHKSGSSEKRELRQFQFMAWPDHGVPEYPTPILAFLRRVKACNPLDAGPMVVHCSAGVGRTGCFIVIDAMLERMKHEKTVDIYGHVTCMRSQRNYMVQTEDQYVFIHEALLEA
# Protocol: (§1) Candidate compounds were screened using the in vitro protein tyrosine phosphatase (PTP) assay kit (Sigma, St. Lois, Mo.). […] The assay determines free phosphate generated by dephosphorylation of the PTP substrate using the Malachite Green reagent. Briefly, 0.5 μg of GST-SHP-2 PTP was incubated in 40 μL assay buffer (25 mM Tris-HCl, PH7.4, 50 mM NaCl, 5 mM DTT, and 2.5 mM EDTA) with test compounds at various concentrations or DMSO at room temperature for 30 min. The PTP substrate was then added to a final concentration of 0.2 mM. The system was incubated at 30° C. for 30 min. Finally, 50 μl of Malachite Green solution was added and OD620 was measured after 5 min. In the phosphatase assays for SHP-1, CD45, TC-PTP, PTP-MEG2 (PTPN9), and LAR (PTPRF), procedures were similar, with the exception that GST-SHP-1, GST-CD45 cytoplasmic domain, GST-TC-PTP, GST-PTP-MEG2 PTP domain, and GST-LAR PTP domain purchased from Biomol International, L.P. (Plymouth Meeting, Pa.) were used instead as the enzymes.
# [2] = biological target: T2, GST-PTP-MEG2 PTP domain (PTPN9) (Homo sapiens, UniProt P43378); assay: in vitro phosphatase assay, PTP-MEG2; format: biochemical
# T2 construct: GST-PTP-MEG2 PTP domain; purchased Biomol International, L.P. (Plymouth Meeting, Pa.)
# T2 sequence (P43378 303-574 limits assumed): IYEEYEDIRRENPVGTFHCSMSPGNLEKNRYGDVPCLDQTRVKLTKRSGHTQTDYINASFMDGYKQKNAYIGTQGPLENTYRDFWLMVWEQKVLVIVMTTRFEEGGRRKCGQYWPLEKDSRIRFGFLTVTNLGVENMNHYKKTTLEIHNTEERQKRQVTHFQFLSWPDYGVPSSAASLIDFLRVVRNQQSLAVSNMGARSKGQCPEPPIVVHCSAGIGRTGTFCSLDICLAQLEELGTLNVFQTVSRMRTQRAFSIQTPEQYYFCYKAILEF
# Protocol: as §1
# [3] = system: myeloid progenitors, wildtype and SHP-2 E76K; assay: hematopoietic progenitor cell colony formation assay (CFU-GM); format: cell-based, mouse
# Protocol: To determine cellular response of myeloid progenitors to IL-3, bone marrow cells (5×10^4 cells/ml) freshly harvested from C57BL6 mice were assayed for colony forming units (CFUs) in 0.9% methylcellulose IMDM medium containing 30% FBS, glutamine (10^−4 M), β-mercaptoethanol (3.3×10^−5 M), and IL-3 (10 ng/ml). After 7 days of culture at 37° C. in a humidified 5% CO2 incubator, hematopoietic cell colonies (primarily CFU-GM) were counted under an inverted microscope.
# FIG. 13 illustrates A). […] Bone marrow cells were harvested from wildtype and mutant mice with SHP-2 E76K mutation. IL-3 induced myeloid progenitor cell colony (CFU-GM) formation assays were performed as described in the Examples in the presence of various concentrations of active compounds. Shown are the results of a representative compound #324. B). Inhibition of growth factor-independent colony formation of myeloid progenitors with SHP-2 activating mutation E76K by active compounds. Bone marrow cells were harvested from wildtype and mutant mice with SHP-2 E76K mutation. The cells were assayed for CFU-GM without cytokines in the presence of various concentrations of active compounds. Shown are the results of a representative compound #324.
# [4] = system: H661 (SHP-2 N58S) and H596 lung cancer cells; assay: cell proliferation assay, lung cancer cells (MTS); format: cell-based; conditions: indicated concentrations 48 hours; 10 μM time course
# Protocol: To test the effects of the active compounds on SHP-2-mediated cellular proliferation, Ba/F3, an IL-3 dependent hematopoietic cell line, mouse embryonic fibroblasts (MEFs), and H661 lung cancer cell line with SHP-2 activating mutation N58S were used for the assays. Cells were seeded into 96-well plates (2×10^4 cells/well) in the RPMI-1640 (for Ba/F3 cells) or DMEM (for MEFs and H661 cells) medium supplemented with 10% fetal bovine serum (FBS) and test compounds at various concentrations. For the Ba/F3 cell assay, recombinant mouse IL-3 (1 ng/mL) was included in the culture medium. Two days later, cell number was determined using the MTS cell proliferation kit (Promega Life Science, Madison, Wis.).
# FIG. 14 illustrates A). […] H661 and H596 cells were cultured in DMEM medium supplemented with active compounds at the indicated concentrations. DMSO was included at negative controls. Cell numbers were determined 48 hours later using the MTS assay. Shown are the results of a representative compound #324. B). […] H661 and H596 cells were cultured in DMEM medium supplemented with active compounds (10 μM) for the indicated periods of time. DMSO was included at negative controls. Cell numbers were determined using the MTS assay. Shown are the results of a representative compound #324.
# [5] = system: JMML patient bone marrow cells; assay: JMML bone marrow cells cultured with GM-CSF (MTS), FIG. 15; format: cell-based; conditions: DMEM with GM-CSF
# Protocol: FIG. 15 illustrates inhibition of growth factor-independent colony formation of myeloid progenitors with SHP-2 activating mutation E76K by active compounds. JMML patient bone marrow cells were harvested from mutant mice with SHP-2 E76K mutation and were cultured in DMEM medium supplemented GM-CSF. DMSO was included at negative controls. Cell numbers were determined using the MTS assay. Shown are the results of a representative compound #324.
compound,measurement,setting,value
Cc1cc(C)c2[nH]c3nc(SCC(=O)Nc4cccc5ccccc45)nnc3c2c1 [#324],IC50,[1],144 µM
same,IC50,[2],177 µM
same,growth factor-independent colony formation of E76K myeloid progenitors,[3]; CFU-GM without cytokines,Inhibition
same,sensitivity of E76K myeloid progenitors versus wild type (IL-3 induced CFU-GM),[3]; IL-3 induced colony formation,more sensitive
same,sensitivity of H661 (N58S) cells versus H596 cells,[4],more sensitive
same,growth of JMML bone marrow cells with GM-CSF (FIG. 15),[5],inhibition
